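1) Cells in 96-well plates. 2) Compound, 48 h, 5 concentrations. 3) Linear interpolation between surrounding doses. 4) Unreached endpoint = highest concentration. TGI: total growth inhibition.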
How the values were obtained:
Assay in all cases: NCI anticancer screen, dose series, 48 h
A498 renal = tested on: A498 renal
A549 NSCLC = tested on: A549 NSCLC
BT-549 breast = tested on: BT-549 breast
CAKI-1 renal = tested on: CAKI-1 renal
CCRF-CEM leukemia = tested on: CCRF-CEM leukemia
COLO 205 colon = tested on: COLO 205 colon
DU-145 prostate = tested on: DU-145 prostate
EKVX NSCLC = tested on: EKVX NSCLC
HCC-2998 colon = tested on: HCC-2998 colon
HCT-116 colon = tested on: HCT-116 colon
HCT-15 colon = tested on: HCT-15 colon
HOP-62 NSCLC = tested on: HOP-62 NSCLC
HOP-92 NSCLC = tested on: HOP-92 NSCLC
HS 578T breast = tested on: HS 578T breast
HT29 colon = tested on: HT29 colon
IGROV1 ovarian = tested on: IGROV1 ovarian
KM12 colon = tested on: KM12 colon
M14 melanoma = tested on: M14 melanoma
MALME-3M melanoma = tested on: MALME-3M melanoma
MDA-MB-231 breast = tested on: MDA-MB-231 breast
MDA-MB-435 = tested on: MDA-MB-435
MDA-N = tested on: MDA-N
MOLT-4 leukemia = tested on: MOLT-4 leukemia
NCI-H23 lung = tested on: NCI-H23 lung
NCI-H460 lung = tested on: NCI-H460 lung
NCI-H522 lung = tested on: NCI-H522 lung
OVCAR-3 ovarian = tested on: OVCAR-3 ovarian
OVCAR-4 ovarian = tested on: OVCAR-4 ovarian
OVCAR-5 ovarian = tested on: OVCAR-5 ovarian
PC-3 prostate = tested on: PC-3 prostate
RPMI-8226 leukemia = tested on: RPMI-8226 leukemia
SF-268 CNS = tested on: SF-268 CNS
SF-295 CNS = tested on: SF-295 CNS
SK-MEL-2 melanoma = tested on: SK-MEL-2 melanoma
SK-MEL-28 melanoma = tested on: SK-MEL-28 melanoma
SK-MEL-5 melanoma = tested on: SK-MEL-5 melanoma
SK-OV-3 ovarian = tested on: SK-OV-3 ovarian
SN12C renal = tested on: SN12C renal
SNB-19 CNS = tested on: SNB-19 CNS
SNB-75 CNS = tested on: SNB-75 CNS
SR leukemia = tested on: SR leukemia
SW-620 colon = tested on: SW-620 colon
TK-10 renal = tested on: TK-10 renal
U251 CNS = tested on: U251 CNS
UACC-257 melanoma = tested on: UACC-257 melanoma
UACC-62 melanoma = tested on: UACC-62 melanoma
UO-31 renal = tested on: UO-31 renal
786-0 renal = tested on: 786-0 renal
ACHN renal = tested on: ACHN renal
HL-60(TB) leukemia = tested on: HL-60(TB) leukemia
K-562 leukemia = tested on: K-562 leukemia
LOX IMVI melanoma = tested on: LOX IMVI melanoma
MCF7 breast = tested on: MCF7 breast
NCI-H226 lung = tested on: NCI-H226 lung
NCI/ADR-RES ovarian = tested on: NCI/ADR-RES ovarian
OVCAR-8 ovarian = tested on: OVCAR-8 ovarian
RXF 393 renal = tested on: RXF 393 renal
SF-539 CNS = tested on: SF-539 CNS
T-47D breast = tested on: T-47D breast

## COC(=O)C(Cc1cn(C(C)n2cc(CC(NC(C)=O)C(=O)OC)c3ccccc32)c2ccccc12)NC(C)=O (stereo unspecified)
A498 renal
  TGI: > 100000 nM
A549 NSCLC
  TGI: > 100000 nM
BT-549 breast
  TGI: > 100000 nM
CAKI-1 renal
  TGI: > 100000 nM
CCRF-CEM leukemia
  TGI: > 100000 nM
COLO 205 colon
  TGI: > 100000 nM
DU-145 prostate
  TGI: > 100000 nM
EKVX NSCLC
  TGI: > 100000 nM
HCC-2998 colon
  TGI: > 100000 nM
HCT-116 colon
  TGI: > 100000 nM
HCT-15 colon
  TGI: > 100000 nM
HOP-62 NSCLC
  TGI: > 100000 nM
HOP-92 NSCLC
  TGI: > 100000 nM
HS 578T breast
  TGI: > 100000 nM
HT29 colon
  TGI: > 100000 nM
IGROV1 ovarian
  TGI: > 100000 nM
KM12 colon
  TGI: > 100000 nM
M14 melanoma
  TGI: > 100000 nM
MALME-3M melanoma
  TGI: > 100000 nM
MDA-MB-231 breast
  TGI: > 100000 nM
MDA-MB-435
  TGI: > 100000 nM
MDA-N
  TGI: > 100000 nM
MOLT-4 leukemia
  TGI: > 100000 nM
NCI-H23 lung
  TGI: > 100000 nM
NCI-H460 lung
  TGI: > 100000 nM
NCI-H522 lung
  TGI: > 100000 nM
OVCAR-3 ovarian
  TGI: > 100000 nM
OVCAR-4 ovarian
  TGI: > 100000 nM
OVCAR-5 ovarian
  TGI: > 100000 nM
PC-3 prostate
  TGI: > 100000 nM
RPMI-8226 leukemia
  TGI: > 100000 nM
SF-268 CNS
  TGI: > 100000 nM
SF-295 CNS
  TGI: > 100000 nM
SK-MEL-2 melanoma
  TGI: > 100000 nM
SK-MEL-28 melanoma
  TGI: > 100000 nM
SK-MEL-5 melanoma
  TGI: > 100000 nM
SK-OV-3 ovarian
  TGI: > 100000 nM
SN12C renal
  TGI: > 100000 nM
SNB-19 CNS
  TGI: > 100000 nM
SNB-75 CNS
  TGI: 83300 nM
SR leukemia
  TGI: > 100000 nM
SW-620 colon
  TGI: > 100000 nM
TK-10 renal
  TGI: > 100000 nM
U251 CNS
  TGI: > 100000 nM
UACC-257 melanoma
  TGI: > 100000 nM
UACC-62 melanoma
  TGI: > 100000 nM
UO-31 renal
  TGI: > 100000 nM

## CN(C)CCn1c(=O)c2ccc(NCCCN(C)CCCNc3ccc4c(=O)n(CCN(C)C)c(=O)n5c6ccc(O)cc6c(=O)c3c45)c3c(=O)c4cc(O)ccc4n(c1=O)c23
786-0 renal
  TGI: 1050 nM
A498 renal
  TGI: 367 nM
A549 NSCLC
  TGI: 786 nM
ACHN renal
  TGI: 726 nM
BT-549 breast
  TGI: 691 nM
CAKI-1 renal
  TGI: 2230 nM
CCRF-CEM leukemia
  TGI: 130 nM
COLO 205 colon
  TGI: 187 nM
DU-145 prostate
  TGI: 655 nM
EKVX NSCLC
  TGI: 929 nM
HCC-2998 colon
  TGI: 173 nM
HCT-116 colon
  TGI: 490 nM
HCT-15 colon
  TGI: 3410 nM
HL-60(TB) leukemia
  TGI: 701 nM
HOP-62 NSCLC
  TGI: 1510 nM
HT29 colon
  TGI: 1050 nM
IGROV1 ovarian
  TGI: 392 nM
K-562 leukemia
  TGI: 255 nM
KM12 colon
  TGI: 553 nM
LOX IMVI melanoma
  TGI: 61.9 nM
M14 melanoma
  TGI: 805 nM
MALME-3M melanoma
  TGI: 598 nM
MCF7 breast
  TGI: 710 nM
MDA-MB-231 breast
  TGI: 177 nM
MDA-MB-435
  TGI: 180 nM
MDA-N
  TGI: 251 nM
MOLT-4 leukemia
  TGI: < 28.9 nM
NCI-H226 lung
  TGI: 48.8 nM
NCI-H23 lung
  TGI: 226 nM
NCI-H460 lung
  TGI: 234 nM
NCI-H522 lung
  TGI: 80.2 nM
NCI/ADR-RES ovarian
  TGI: > 46300 nM
OVCAR-4 ovarian
  TGI: 177 nM
OVCAR-5 ovarian
  TGI: 1150 nM
OVCAR-8 ovarian
  TGI: 347 nM
PC-3 prostate
  TGI: 310 nM
RXF 393 renal
  TGI: 215 nM
SF-268 CNS
  TGI: 1040 nM
SF-295 CNS
  TGI: 2330 nM
SF-539 CNS
  TGI: 1840 nM
SK-MEL-2 melanoma
  TGI: 275 nM
SK-MEL-28 melanoma
  TGI: 1190 nM
SK-MEL-5 melanoma
  TGI: 171 nM
SK-OV-3 ovarian
  TGI: 2400 nM
SN12C renal
  TGI: 553 nM
SNB-19 CNS
  TGI: 1540 nM
SNB-75 CNS
  TGI: 62.7 nM
SR leukemia
  TGI: 642 nM
T-47D breast
  TGI: 10200 nM
TK-10 renal
  TGI: 1630 nM
U251 CNS
  TGI: 300 nM
UACC-257 melanoma
  TGI: 1230 nM
UACC-62 melanoma
  TGI: 215 nM
UO-31 renal
  TGI: 452 nM

Reference: PubChem BioAssay (NCI)
